Source: article PMC6268546, “A PAMPA Assay as Fast Predictive Model of Passive Human Skin Permeability of New Synthesized Corticosteroid C-21 Esters” (Molecules, 2012)
“And” between values parts separate entries of the source, which are not always exact repeats. Equal values may be shown once.

How the values were obtained:
[1] = PAMPA test (skin permeability model); details: for permeability coefficient log Pe / permeation parameter CA(t)/CD(0) / retention factor R (membrane retention): 70% silicone oil-30% IPM membrane, 7 h incubation, 100 μM in 5% DMSO phosphate buffer pH 7, triplicate mean; for Papp at 7 h, 100 μM: PAMPA, pH 7
Description: The study was performed in triplicate and the results are presented as mean values. After the PAMPA tests was performed, a HPLC method was used to measure the concentrations of the investigated corticosteroids: the initial concentration–CD(0) in the starting solution, the residual concentration–CD(t) in the donor compartment (7 h after incubation) and the transferred concentration–CA(t) in the acceptor compartment (7 h after incubation). The assay was performed using the previously described HPLC method with mobile phase modification for determination of standard corticosteroids. The mobile phase modification was introduced to achieve complete separation standard corticosteroids peak from DMSO peak, which was used as cosolvent. DMSO was used as cosolvent with the aim of increasing the corticosteroid C-21 esters’ solubility. DMSO is one of the earliest and most widely studied penetration enhancers for transdermal drug delivery systems.
On the basis of the initial (100 μM) and calculated residual and transferred concentrations according to peak area comparison at zero time t0, the retention factors–R and permeability coefficients–logPe of investigated corticosteroids were obtained.
Phosphate buffer (pH = 7) was prepared by dissolving NaH2PO4·H2O (1.167 g) and Na2HPO4·7H2O (3.093 g) in water (1000 mL) with the fixed total concentration of 20 mM. The 5% DMSO solution were prepared dissolving DMSO in phosphate buffer. The corticosteroid solutions were prepared dissolving the investigated corticosteroid standards as well as new synthesized corticosteroid C-21 esters in 5% DMSO solution. […] An aliquot of previously prepared mixture (3.5 mL, 7 mL silicone oil and 3 mL IPM) was transferred into a 10 mL volumetric flask, dissolved and fill up to mark with n-hexane.
Permeation experiments were carried out in hydrophobic PVDF 96-well filter plates (Millipore, Molsheim, France). […] Next, in each well of acceptor plate, 5% DMSO solution (400 μL) was transferred with an automatic pipette and covered by the donor plate, creating a PAMPA sandwich. In each well of the donor plate solutions of the tested corticosteroid in 5% DMSO solution (100 μM, 300 μL) was transferred by the use of an automatic pipette. Each substance was measured in triplicate at iso-pH conditions (the same pH value in donor and receptor compartment). The donor plate was covered to prevent evaporation and the whole system set up to interact with the vibratory mixer. After 7 h, PAMPA sandwich was removed from the mixer and vibration, and using the HPLC method the concentration of the investigated substances in the donor and receptor compartments were determined. The HPLC method used was as previously described but with some necessary modifications. A mobile phase of methanol–water (75:25 v/v) was used for analysis of corticosteroid C-21 esters, while the mobile phase methanol–water (50:50 v/v) was used for the analysis of unesterified corticosteroids to increase their retention time and prevent overlapping with the DMSO peak. Other HPLC parameters were as previously described. The concentrations of each tested corticosteroid in the appropriate time interval in the donor and acceptor compartments were calculated using the method of comparing the peak area of the initial concentration at zero time t0.
The values of permeability coefficients–logPe and retention factors–R of examined corticosteroids were calculated using equations (2) and (3). The retention factor, R can be defined as the mole fraction retained in the membrane and in the microplates (i.e., filters and plate materials): [drawing 1] (2) where CA(t)/CD(0) represents the amount of compound that reached the acceptor compartment after incubation time t (for VA = VD): […]

[2] = approximate logKp (permeability coefficient through human skin) calculated from logPe by equation (1); details: logKp = 1.34 logPe + 0.28, from PAMPA logPe
Text: Ottaviani and coworkers predicted skin permeation of numerous compounds applying a new membrane (70% silicone oil and 30% IPM) in the PAMPA test and presented permeate classifications on the basis of available literature permeability coefficients through human skin, logKp.
The proposed equation for correlation between logKp and logPe for 31 investigated compounds was: […]

[3] = system: croton oil induced mice ear edema; details: 4 h after application, at ED50 of FA (28 μM); cited from earlier work

| SMILES | logKp (approximate, calculated) [2] | Papp at 7 h, 100 μM [1] [×10⁻⁶ cm/s] | permeation parameter CA(t)/CD(0) ([1]; listed as mometasone furoate) [%] | retention factor R (membrane retention) ([1]; listed as mometasone furoate) [%] | permeability coefficient log Pe [1] [cm/s] | permeation parameter CA(t)/CD(0) [1] | retention factor R (membrane retention) [1] [%] | relative anti-inflammatory activity (reduction of mass edema) in comparison to FA (100%) [3] | permeate classification (groups I-III) from R versus CA(t)/CD(0) ([1]; relationship between retention factors and permeation parameters, Figure 2) |
| --- | --- | --- | --- | --- | --- | --- | --- | --- | --- |
| CCOC(CC)C(=O)OCC(=O)C12OC(C)(C)OC1CC1C3CCC4=CC(=O)C=CC4(C)C3(F)C(O)CC12C (centres unmarked) [TA-21-EB, triamcinolone acetonide 21-(2′-ethoxybutyrate)] |  |  |  |  | −4.87 ± 0.21 | 7.3 ± 1.6% | 70.1 ± 3.4 |  |  |
| CC(Oc1ccccc1)C(=O)OCC(=O)C12OC(C)(C)OC1CC1C3CCC4=CC(=O)C=CC4(C)C3(F)C(O)CC12C (centres unmarked) [TA-21-PhP, triamcinolone acetonide 21-(2′-phenoxypropionate)] |  |  |  |  | −4.07 ± 0.14 | 27.1 ± 1.4% | 51.1 ± 3.8 |  |  |
| CCOC(C)C(=O)OCC(=O)C12OC(C)(C)OC1CC1C3CCC4=CC(=O)C=CC4(C)C3(F)C(O)CC12C (centres unmarked) [TA-21-EP, triamcinolone acetonide 21-(2′-ethoxypropionate)] |  |  |  |  | −4.66 ± 0.15 | 23.0 ± 1.8% | 32.4 ± 1.7 |  |  |
| COC(C)C(=O)OCC(=O)C12OC(C)(C)OC1CC1C3CCC4=CC(=O)C=CC4(C)C3(F)C(O)CC12C (centres unmarked) [TA-21-MP, triamcinolone acetonide 21-(2′-methoxypropionate)] |  |  |  |  | −4.45 ± 0.16 | 38.1 ± 1.6% | 13.5 ± 4.1 |  |  |
| COC(C)C(=O)OCC(=O)C1(O)C(C)CC2C3CCC4=CC(=O)C=CC4(C)C3(F)C(O)CC21C (centres unmarked) [DEX-21-MP, dexamethasone 21-(2′-methoxypropionate)] |  |  |  |  | −4.88 ± 0.17 | 23.8 ± 1.5% | <1 |  |  |
| CCOC(CC)C(=O)OCC(=O)C1(O)C(C)CC2C3CCC4=CC(=O)C=CC4(C)C3(F)C(O)CC21C (centres unmarked) [DEX-21-EB, dexamethasone 21-(2′-ethoxybutyrate)] |  |  |  |  | −4.58 ± 0.13 | 33.4 ± 1.2% | 11.3 ± 3.5 |  |  |
| CCC(OC)C(=O)OCC(=O)C12OC(C)(C)OC1CC1C3CC(F)C4=CC(=O)C=CC4(C)C3(F)C(O)CC12C (centres unmarked) [FA-21-MB, fluocinolone acetonide 21-(2′-methoxybutyrate)] |  |  |  |  | −4.65 ± 0.12 | 18.0 ± 1.3% | 47.2 ± 3.4 |  |  |
| CCOC(C)C(=O)OCC(=O)[C@@]12OC(C)(C)O[C@@H]1C[C@H]1[C@@H]3C[C@H](F)C4=CC(=O)C=C[C@]4(C)[C@@]3(F)[C@@H](O)C[C@@]12C (some centres unmarked) [FA-21-EP, fluocinolone acetonide 21-(2′-ethoxypropionate)] |  |  |  |  | −4.52 ± 0.19 | 22.2 ± 1.6% | 45.8 ± 4.1 | less than 10% |  |
| CCC(OC)C(=O)OCC(=O)C12OC(C)(C)OC1CC1C3CCC4=CC(=O)C=CC4(C)C3(F)C(O)CC12C (centres unmarked) [TA-21-MB, triamcinolone acetonide 21-(2′-methoxybutyrate)] |  |  |  |  | −4.85 ± 0.23 | 16.9 ± 2.0% | 39.3 ± 4.1 |  |  |
| CC(=O)OCC(=O)[C@@]1(O)CC[C@H]2[C@@H]3CCC4=CC(=O)CC[C@]4(C)[C@H]3[C@@H](O)C[C@@]21C [H-21-Ac, hydrocortisone acetate, reference compound] | −6.51 | 8.51 |  |  |  | 10% and 10.0 ± 1.7% | < 1 |  |  |
| CCC(OC)C(=O)OCC(=O)C1(O)C(C)CC2C3CCC4=CC(=O)C=CC4(C)C3(F)C(O)CC21C (centres unmarked) [DEX-21-MB, dexamethasone 21-(2′-methoxybutyrate)] |  |  |  |  | −4.58 ± 0.15 | 37.4 ± 1.5% | <1 |  |  |
| COC(C)C(=O)OCC(=O)[C@@]12OC(C)(C)O[C@@H]1C[C@H]1[C@@H]3C[C@H](F)C4=CC(=O)C=C[C@]4(C)[C@@]3(F)[C@@H](O)C[C@@]12C (some centres unmarked) [FA-21-MP, fluocinolone acetonide 21-(2′-methoxy-propionate)] |  |  |  |  | −4.64 ± 0.17 | 23.1 ± 1.4% | 34.1 ± 3.5 | 108.12% |  |
| C[C@@H]1C[C@H]2[C@@H]3CCC4=CC(=O)C=C[C@]4(C)[C@@]3(Cl)[C@@H](O)C[C@]2(C)[C@@]1(OC(=O)c1ccco1)C(=O)CCl [MF, mometasone furoate, reference compound] | −5.21 | 79.4 | 7.7 | 81 |  | 7.7 ± 1.5% | 81.0 ± 2.9 |  | group III (having high membrane retention and low permeation (group III)) |
| CC(Oc1ccccc1)C(=O)OCC(=O)C1(O)C(C)CC2C3CCC4=CC(=O)C=CC4(C)C3(F)C(O)CC21C (centres unmarked) [DEX-21-PhP, dexamethasone 21-(2′-phenoxypropionate)] |  |  |  |  |  | 4.1 ± 1.1% | 86.5 ± 4.2 |  |  |
| CCOC(CC)C(=O)OCC(=O)C12OC(C)(C)OC1CC1C3CC(F)C4=CC(=O)C=CC4(C)C3(F)C(O)CC12C (centres unmarked) [FA-21-EB, fluocinolone acetonide 21-(2′-ethoxybutyrate)] |  |  |  |  | −4.82 ± 0.10 | 7.2 ± 0.9% | 72.8 ± 2.6 | 60% |  |
| CC(Oc1ccccc1)C(=O)OCC(=O)C12OC(C)(C)OC1CC1C3CC(F)C4=CC(=O)C=CC4(C)C3(F)C(O)CC12C (centres unmarked) [FA-21-PhP, fluocinolone acetonide 21-(2′-phenoxypropionate)] |  |  |  |  | −5.68 ± 0.15 | 1.3 ± 0.6% | 71.9 ± 2.8 | 65% |  |
| CCOC(C)C(=O)OCC(=O)C1(O)C(C)CC2C3CCC4=CC(=O)C=CC4(C)C3(F)C(O)CC21C (centres unmarked) [DEX-21-EP, dexamethasone 21-(2′-ethoxypropionate)] |  |  |  |  |  | 31.6 ± 0.6% | <1 |  |  |
| C[C@]12CCC(=O)C=C1CC[C@@H]1[C@@H]2[C@@H](O)C[C@@]2(C)[C@H]1CC[C@]2(O)C(=O)CO [H, hydrocortisone, reference compound] |  |  |  |  |  |  | 1.5 ± 0.9 |  |  |

Continued, in another order:

| logKp (approximate, calculated) [2] | Papp at 7 h, 100 μM [1] [×10⁻⁶ cm/s] | permeation parameter CA(t)/CD(0) ([1]; listed as mometasone furoate) [%] | retention factor R (membrane retention) ([1]; listed as mometasone furoate) [%] | SMILES | permeability coefficient log Pe [1] [cm/s] | permeation parameter CA(t)/CD(0) [1] | retention factor R (membrane retention) [1] [%] | relative anti-inflammatory activity (reduction of mass edema) in comparison to FA (100%) [3] | permeate classification (groups I-III) from R versus CA(t)/CD(0) ([1]; relationship between retention factors and permeation parameters, Figure 2) |
| --- | --- | --- | --- | --- | --- | --- | --- | --- | --- |
| −6.43 | 9.77 |  |  | CC1(C)O[C@@H]2C[C@H]3[C@@H]4CCC5=CC(=O)C=C[C@]5(C)[C@@]4(F)[C@@H](O)C[C@]3(C)[C@]2(C(=O)CO)O1 [TA, triamcinolone acetonide, reference compound] |  | 10.8 ± 1.5% | 4.7 ± 2.3 |  |  |
| −6.77 | 5.5 |  |  | CC1(C)O[C@@H]2C[C@H]3[C@@H]4C[C@H](F)C5=CC(=O)C=C[C@]5(C)[C@@]4(F)[C@@H](O)C[C@]3(C)[C@]2(C(=O)CO)O1 [FA, fluocinolone acetonide, reference compound] |  | 6.7 ± 1.2% | <1 | 100% |  |
